# From patent publication US10905736B2, “Ezetimibe-associated ApoA-I mimetic peptides showing enhanced synergism” (The Regents of the University of California, priority 2016, dated 2021)
# Entries after “also recorded” stand apart in the source; their conditions may differ.
# Columns and labels:
# [1] = system: cholesterol-fed monkeys; settings: cited from earlier work
# [2] = system: LDLR null mice; experiment: Plasma hydroxyeicosatetraenoic acid (HETE) levels in LDLR null mice fed Western diet for two weeks; format: in vivo, mouse; settings: female LDLR null mice age 5-8 months, n=20 per group, WD two weeks, Tg6F 0.06% of diet, Ezetimibe 10 mg/kg/day
# Experimental: The plasma from the mice in FIG. 1 was analyzed for 5-HETE as described (see, e.g., Navab et al. (2012) J. Lipid Res., 53: 437-445).
# Female LDLR null mice age 5-8 months (n=20 per group) were fed standard mouse chow (Chow) or a Western diet high in cholesterol and fat (WD) or were fed WD+0.06% by weight of a freeze-dried concentrate of transgenic tomatoes expressing the apoA-I mimetic peptide 6F, which was prepared as previously described (see, e.g., Chattopadhyay et al. (2015) Pharma. Res. Per. 3: e00154; Chattopadhyay et al. (2016) J. Lipid Res. 57: 832-847; PCT Pub. Nos: WO 2013/148214 (PCT/US2013/031037), WO 2015/175968 (PCT/US2015/031134)) (Tg6F), or the mice were fed WD with Ezetimibe added to give a daily dose of 10 mg/kg body weight/day (WD+Ezetimibe), or the mice were fed WD with Tg6F added at 0.06% by weight plus Ezetimibe (each added separately to the diet) to give a daily dose of Ezetimibe of 10 mg/kg body weight; the Tg6F and Ezetimibe were mixed into WD as described previously (Chattopadhyay et al. (2016) J. Lipid. Res. 57: 832-847) (Combined Formulation), or the mice were fed WD to which was added ezetimibe-associated transgenic 6F peptide (Ez-tg6F) at 0.06% Tg6F by weight containing sufficient Ezetimibe to give a daily dose of 10 mg/kg body weight/day that was prepared as described herein. Specifically, the ezetimibe-associated Tg6F peptide (Ez-Tg6F) was made by adding the ezetimibe directly to a solution of ethyl acetate 5% acetic acid that had been incubated overnight at room temperature with freeze-dried tomato powder obtained from transgenic tomatoes expressing the 6F peptide, and which had been removed to a separate vessel as described previously (see, e.g., Chattopadhyay et al. (2015) Pharma. Res. Per. 3: e00154; Chattopadhyay et al. (2016) J. Lipid. Res. 57: 832-847) prior to addition of the ezetimibe. […] After feeding the diets for two weeks, the mice were bled and total plasma cholesterol levels were determined as described (Id.). […]
# [3] = system: mice; settings: cited from earlier work
smiles,measurement,setting,value
"O=C1[C@H](CC[C@H](O)c2ccc(F)cc2)[C@@H](c2ccc(O)cc2)N1c1ccc(F)cc1 [Ezetimibe, (3R,4S)-1-(4-fluorophenyl)-3-[(3S)-3-(4-fluorophenyl)-3-hydroxypropyl]-4-(4-hydroxyphenyl)azetidin-2-one]",ED50 value (median effective dose) for inhibiting the rise in plasma cholesterol levels,[1],0.5 µg/kg/day
same,plasma 5-HETE levels,[2]; FIG. 7-8 / FIG. 17 G-H,equally effective; also recorded: significantly decreased plasma levels of 5-HETE
same,plasma 12-HETE levels,[2]; FIG. 9-10 / FIG. 17 I-J,without effect; also recorded: failed to significantly decrease plasma 12-HETE and 15-HETE levels; also recorded: did not significantly alter plasma 12-HETE or 15-HETE levels
same,plasma 15-HETE levels,[2]; FIG. 11-12 / FIG. 17 K-L,without effect; also recorded: failed to significantly decrease plasma 12-HETE and 15-HETE levels; also recorded: did not significantly alter plasma 12-HETE or 15-HETE levels
same,ED50 value,[3],700 µg/kg/day
